Literature values in patent US9107877B2, “Method of treating onychomycosis” (Polichem SA, priority 2013, dated 2015).

Key:
[1] = test system: onychomycosis; details: 48 weeks of daily topical treatment, 12-week follow up
[2] = test system: onychomycosis; details: oral, 250 mg tablet a day for 12 weeks

Row | SMILES | Complete cure [1] | Responders [1] | Complete cure, % of patients [2]
1 | Cc1cc(C2CCCCC2)n(O)c(=O)c1 [ciclopirox] | about 13% | ~30% | –
2 | CN(C/C=C/C#CC(C)(C)C)Cc1cccc2ccccc12 [terbinafine] | – | – | 38%
